Data as given in PubChem BioAssay AID256 (DTP/NCI, 2004).
Where “and” joins values, the source holds several entries; their conditions need not be identical. Identical values can stand only once. Inconclusive results and toxic doses are left out. Rule for the calls: active = survival T/C of 150% or more; inactive = T/C below 125% in these data.

System: CD2F1 mice, L1210 leukemia ip, survival T/C
Assay: NCI In Vivo Anticancer Drug Screen. Data for tumor model L1210 Leukemia (intraperitoneal) in CD2F1 (CDF1) mice
Conditions: higher = longer survival
Procedure, shortened: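 Mice carrying a transplanted tumor received test compound or vehicle alone. The value is the measurement in the treated group divided by that in the vehicle-treated control group.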

Measured: T/C

COc1ccccc1NC(=O)Nc1ccc(Cl)cc1OC
inactive: endpoint: mean survival time, dose: 100.0 mg/kg/injection, schedule: Q04DX002 (ip), vehicle: saline with Tween-80 87 % of control | endpoint: mean survival time, dose: 200.0 mg/kg/injection, schedule: Q04DX002 (ip), vehicle: saline with Tween-80 94 % of control | endpoint: mean survival time, dose: 400.0 mg/kg/injection, schedule: Q04DX002 (ip), vehicle: saline with Tween-80 97 % of control

Cc1cccc(-n2cc(C#N)c3c(C)cc(C)nc32)c1
inactive: endpoint: mean survival time, dose: 100.0 mg/kg/injection, schedule: Q04DX003 (ip), vehicle: saline 106 % of control | endpoint: mean survival time, dose: 200.0 mg/kg/injection, schedule: Q04DX003 (ip), vehicle: saline 101 % of control | endpoint: mean survival time, dose: 400.0 mg/kg/injection, schedule: Q04DX003 (ip), vehicle: saline 97 % of control

CSc1cc(NC(C)=O)nc2nc[nH]c12
inactive: endpoint: mean survival time, dose: 100.0 mg/kg/injection, schedule: Q01DX001 (ip), vehicle: Klucel (hydroxypropylcellulose) (HPC) 98 % of control | endpoint: mean survival time, dose: 200.0 mg/kg/injection, schedule: Q01DX001 (ip), vehicle: Klucel (hydroxypropylcellulose) (HPC) 97 % of control

CC(C)OP(=O)(OCCCO)C(Cl)Cl (centres undefined)
inactive: endpoint: mean survival time, dose: 100.0 mg/kg/injection, schedule: Q01DX001 (ip), vehicle: saline 100 % of control | endpoint: mean survival time, dose: 200.0 mg/kg/injection, schedule: Q01DX001 (ip), vehicle: saline 102 % of control | endpoint: mean survival time, dose: 400.0 mg/kg/injection, schedule: Q01DX001 (ip), vehicle: saline 102 % of control

N#CCCn1ccc2ccccc21
inactive: endpoint: mean survival time, dose: 100.0 mg/kg/injection, schedule: Q01DX009 (ip), vehicle: other 98 % of control | endpoint: mean survival time, dose: 200.0 mg/kg/injection, schedule: Q01DX009 (ip), vehicle: other 104 % of control | endpoint: mean survival time, dose: 400.0 mg/kg/injection, schedule: Q01DX009 (ip), vehicle: other 98 % of control

O=C1C=C(c2ccccc2)OC(=O)C1C(=O)c1ccccc1 (centres undefined)
inactive: endpoint: mean survival time, dose: 100.0 mg/kg/injection, schedule: Q01DX001 (ip), vehicle: saline with Tween-80 98 % of control | endpoint: mean survival time, dose: 200.0 mg/kg/injection, schedule: Q01DX001 (ip), vehicle: saline with Tween-80 94 % of control

C/C=C/C=C/c1cc2cc3c(c(O)c2c(=O)[nH]1)C1(CC3)C(O)=c2c(=O)c3c(=O)cc(OC)c(=O)c=3c(=O)c2=C1O (centres undefined)
inactive: endpoint: mean survival time, dose: 0.06 mg/kg/injection, schedule: Q01DX009 (ip), vehicle: DMSO 90 % of control and 93 % of control and 108 % of control | endpoint: mean survival time, dose: 0.06 mg/kg/injection, schedule: Q01DX009 (ip), vehicle: Klucel (hydroxypropylcellulose) (HPC) 97 % of control | endpoint: mean survival time, dose: 0.12 mg/kg/injection, schedule: Q01DX009 (ip), vehicle: DMSO 113 % of control and 107 % of control | endpoint: mean survival time, dose: 0.12 mg/kg/injection, schedule: Q01DX009 (ip), vehicle: Klucel (hydroxypropylcellulose) (HPC) 98 % of control | endpoint: mean survival time, dose: 0.25 mg/kg/injection, schedule: Q01DX009 (ip), vehicle: DMSO 118 % of control | endpoint: mean survival time, dose: 0.25 mg/kg/injection, schedule: Q01DX009 (ip), vehicle: Klucel (hydroxypropylcellulose) (HPC) 98 % of control | endpoint: mean survival time, dose: 0.5 mg/kg/injection, schedule: Q01DX009 (ip), vehicle: DMSO 94 % of control | endpoint: mean survival time, dose: 0.5 mg/kg/injection, schedule: Q01DX009 (ip), vehicle: Klucel (hydroxypropylcellulose) (HPC) 98 % of control | endpoint: mean survival time, dose: 1.0 mg/kg/injection, schedule: Q01DX009 (ip), vehicle: Klucel (hydroxypropylcellulose) (HPC) 98 % of control | endpoint: mean survival time, dose: 2.0 mg/kg/injection, schedule: Q01DX009 (ip), vehicle: Klucel (hydroxypropylcellulose) (HPC) 104 % of control | endpoint: median survival time, dose: 0.03 mg/kg/injection, schedule: Q01DX009 (ip), vehicle: DMSO 89 % of control

COC(=O)c1ccc(OC(=O)Nc2ccc(N(CCCl)CCCl)cc2)cc1
inactive: endpoint: mean survival time, dose: 50.0 mg/kg/injection, schedule: Q01DX001 (ip), vehicle: Klucel (hydroxypropylcellulose) (HPC) 95 % of control

COC1C(C)OC(OC2CC(C)(O)Cc3cc4c(c(O)c32)C(=O)c2c(O)cc3c(c2C4=O)OC2OC3(C)C(O)C(N(C)C)C2O)C(OC)C1(C)OC (centres undefined)
inactive: endpoint: mean survival time, dose: 0.6 mg/kg/injection, schedule: Q01DX009 (ip), vehicle: other 115 % of control | endpoint: mean survival time, dose: 1.25 mg/kg/injection, schedule: Q04DX003 (ip), vehicle: other 101 % of control | endpoint: mean survival time, dose: 2.5 mg/kg/injection, schedule: Q04DX003 (ip), vehicle: other 109 % of control | endpoint: mean survival time, dose: 5.0 mg/kg/injection, schedule: Q04DX003 (ip), vehicle: other 112 % of control | endpoint: mean survival time, dose: 10.0 mg/kg/injection, schedule: Q04DX003 (ip), vehicle: other 109 % of control | endpoint: mean survival time, dose: 20.0 mg/kg/injection, schedule: Q04DX003 (ip), vehicle: other 102 % of control

O=C(CBr)N1c2ccccc2Sc2ccc(C(F)(F)F)cc21
inactive: endpoint: mean survival time, dose: 1.56 mg/kg/injection, schedule: Q01DX009 (ip), vehicle: other 100 % of control | endpoint: mean survival time, dose: 3.13 mg/kg/injection, schedule: Q01DX009 (ip), vehicle: other 97 % of control | endpoint: mean survival time, dose: 6.25 mg/kg/injection, schedule: Q01DX009 (ip), vehicle: other 102 % of control | endpoint: mean survival time, dose: 12.5 mg/kg/injection, schedule: Q01DX009 (ip), vehicle: other 96 % of control | endpoint: mean survival time, dose: 25.0 mg/kg/injection, schedule: Q01DX009 (ip), vehicle: other 102 % of control
